Values joined by “and” are separate entries in the source; they are usually repeats but may differ in a detail not shown here. Equal entries are not always repeated.
Legend:
[1] = test system: BT-474; assay: normalised viability (% of control), CellTiter-Blue; higher = more viable cells (100 = DMSO, 0 = benzethonium chloride kill control); conditions: 1 nM; incubation time: 72 h
Method in brief: (§1)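 Normalised viability is given for a single listed concentration of the series. In 384-well plates, breast cancer cell lines were incubated 72 h with compound, then read with CellTiter-Blue (2 h, 37 °C) at 560/590 nm. Per-plate scaling set vehicle to 100 and a positive kill control to 0, with Z'-factor quality control.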

[2] = test system: CAL-51; assay: as above; conditions: 1 nM; incubation time: 72 h
Method in brief: as §1

[3] = test system: CAL-85-1; assay: normalised viability (% of control), CellTiter-Blue; higher = more viable cells (about 100 = DMSO control); conditions: 1000 nM; incubation time: 72 h
Description: (§2)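 DSRT, CellTiter-Blue viability, 72 h incubation. Signal is normalised to DMSO and benzethonium chloride controls. Value is the normalised response at dose 7.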

[4] = test system: DU-4475; assay: as above; conditions: 1000 nM; incubation time: 72 h
Description: as §2

[5] = test system: CAL-51; assay: as above; conditions: 1000 nM; incubation time: 72 h
Description: as §2

[6] = test system: CAL-148; assay: as above; conditions: 1000 nM; incubation time: 72 h
Description: as §2

[7] = test system: HDQ-P1; assay: as above; conditions: 1000 nM; incubation time: 72 h
Description: as §2

[8] = test system: MDA-MB-453; assay: as above; conditions: 1000 nM; incubation time: 72 h
Description: as §2

[9] = test system: CAL-85-1; assay: drug sensitivity score (DSS), CellTox Green (DSS (AUC-based score)); higher = stronger drug effect (viability inhibition or cytotoxicity); extreme values may be limits of the assay; conditions: incubation time: 72 h
Method in brief: (§3)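 After 72 h of incubation in 384-well plates with compound at 5 concentrations (10-fold steps, 10,000-fold range set per compound), breast cancer cell lines seeded in 20 µl suspension were read first for CellTox Green fluorescence at 485/520 nm. CellTiter-Glo luminescence was measured next, after 10 min at room temperature. Normalisation on each plate used 0.1 % DMSO and a positive kill control, and the drug sensitivity score was computed from the area under the fitted dose-response curve.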

[10] = test system: HCC1599; assay: as above; conditions: incubation time: 72 h
Method in brief: as §3

[11] = test system: MDA-MB-436; assay: as above; conditions: incubation time: 72 h
Method in brief: as §3

[12] = test system: MFM-223; assay: as above; conditions: incubation time: 72 h
Method in brief: as §3

[13] = test system: HCC1937; assay: as above; conditions: incubation time: 72 h
Method in brief: as §3

[14] = test system: MCF-10A; assay: as above; conditions: incubation time: 72 h
Method in brief: as §3

[15] = test system: BT-474; assay: as above; conditions: incubation time: 72 h
Method in brief: as §3

[16] = test system: CAL-120; assay: as above; conditions: incubation time: 72 h
Method in brief: as §3

[17] = test system: Hs578T; assay: as above; conditions: incubation time: 72 h
Method in brief: as §3

[18] = test system: BT-549; assay: as above; conditions: incubation time: 72 h
Method in brief: as §3

[19] = test system: DU-4475; assay: as above; conditions: incubation time: 72 h
Method in brief: as §3

[20] = test system: MDA-MB-468; assay: as above; conditions: incubation time: 72 h
Method in brief: as §3

[21] = test system: CAL-51; assay: as above; conditions: incubation time: 72 h
Method in brief: as §3

[22] = test system: MDA-MB-231; assay: as above; conditions: incubation time: 72 h
Method in brief: as §3

[23] = test system: CAL-148; assay: as above; conditions: incubation time: 72 h
Method in brief: as §3

[24] = test system: HDQ-P1; assay: as above; conditions: incubation time: 72 h
Method in brief: as §3

[25] = test system: HCC1143; assay: as above; conditions: incubation time: 72 h
Method in brief: as §3

[26] = test system: MDA-MB-453; assay: as above; conditions: incubation time: 72 h
Method in brief: as §3

SMILES	normalised viability [1]	normalised viability [2]	normalised viability [3]	normalised viability [4]	normalised viability [5]	normalised viability [6]	normalised viability [7]	normalised viability [8]	drug sensitivity score [9]	drug sensitivity score [10]	drug sensitivity score [11]	drug sensitivity score [12]	drug sensitivity score [13]	drug sensitivity score [14]	drug sensitivity score [15]	drug sensitivity score [16]	drug sensitivity score [17]	drug sensitivity score [18]	drug sensitivity score [19]	drug sensitivity score [20]	drug sensitivity score [21]	drug sensitivity score [22]	drug sensitivity score [23]	drug sensitivity score [24]	drug sensitivity score [25]	drug sensitivity score [26]
C[C@H]1C[C@@H]2[C@H]([C@@H](O)C[C@@]3(C)[C@H]2CC[C@]3(O)C(=O)CO)[C@@]2(C)C=CC(=O)C=C12 [Methylprednisolone]	108%	103%	97%	104%	102%	108%	109%	69.3%	0	0	0	0	0	0	0	0	0	0	0	0	0	0	0	0	0	0
CCCCC(=O)OCC(=O)[C@]1(O)Cc2c(O)c3c(c(O)c2[C@@H](O[C@H]2C[C@H](NC(=O)C(F)(F)F)[C@H](O)[C@H](C)O2)C1)C(=O)c1c(OC)cccc1C3=O [Valrubicin]	92.9%	89.7%	61.3%	2.39%	23.1%	2.49%	58%	55.7%	0	0	3.14	0	0	0	0	0.113	0.113	0	0	5.83	8.29	0	10.8	0	0	0
C=CCc1cccc(/C=N/NC(=O)CN2CCN(Cc3ccccc3)CC2)c1O [PAC-1]									0	0	0	0	0	0	1	0	0	8.49	0	0	4.72	0	0	0	0	0
Nc1ncn([C@H]2C[C@H](O)[C@@H](CO)O2)c(=O)n1 [Decitabine]	98.4% and 79.8%	113% and 104%	78.2% and 89.6%	76.6% and 89.9%	107% and 98.7%	75.2% and 75%	87.1% and 88.9%	96% and 103%	2.72	0	0	0	0	0	0	0	0	0	0	0.872	7.63	0	0	0	0	0.571
COc1cc2nccc(Oc3ccc(NC(=O)Nc4cc(C)on4)c(Cl)c3)c2cc1OC [Tivozanib]	95%	101%	98.3%	124%	90.3%	98.7%	72.5%	91.7%	0	0	0	0	0	0	0	0	3.86	0	0	0		0	0	0	0	0
Nc1nc(F)nc2c1ncn2[C@@H]1O[C@H](CO)[C@@H](O)[C@@H]1O [Fludarabine]	67.6%	103%	93.8%	99.5%	102%	93.8%	98.4%	108%	0	0	0		0	0	0	0	0	0	0	0	0	0	0	0	0	0
O=C(Cc1ccc(-c2ccc(OCCN3CCOCC3)cc2)cn1)NCc1ccccc1 [KX2-391]	79.1%	106%	33.9%	9.93%	11.1%	18.4%	45.1%	25%	17.3	3.99	4.73	13.2	3.38	15.5	3.97	1.54	11.4	0	0	30.1	20.3	0	0	4.28	0	0
O=C(O)C(=O)O.[NH-][C@@H]1CCCC[C@H]1[NH-].[Pt+2] [Oxaliplatin]	103%	93.3%	93.2%	104%	91.1%	125%	97.9%	109%	0	0	0	0	0	1.93	0	0	0	0	0	0	0	0		1	0	0
O=C(/C=C/c1cccnc1)NCCCCC1CCN(C(=O)c2ccccc2)CC1 [Daporinad]									0	0	0	0	10.4	0	0	0	0	0	0	0.89	0	0	0	0	0	0
COc1cc([C@@H]2c3cc4c(cc3[C@@H](O[C@@H]3O[C@@H]5CO[C@@H](c6cccs6)O[C@H]5[C@H](O)[C@H]3O)[C@H]3COC(=O)[C@H]23)OCO4)cc(OC)c1O [Teniposide]	87.9%	105%	64.6%	5.16%	24.4%	30.3%	82.3%	73.1%	7.07	3.84	0	6.4	8.06		0	4.54	2.53	0	4.49	6.45	11.8	10.8	25.1	7.08	0	0
CC[C@H](Nc1ncnc2[nH]cnc12)c1nc2cccc(F)c2c(=O)n1-c1ccccc1 [GS-1101]									0	0	0	0	0	0	0	0	0	0	0	3.82	0	4.13	0	0	0	0
CNC(=O)c1cc(Oc2ccc(NC(=O)Nc3cc(C(C)(C)C)nn3-c3ccc4ncccc4c3)c(F)c2)ccn1 [Rebastinib]									2.09	0	0	0	0	0	0	0	0	0	0	0	0	0	0	4.01	0	0
CC[C@H](C)C(=O)O[C@H]1C[C@H](O)C=C2C=C[C@H](C)[C@H](CC[C@@H](O)C[C@@H](O)CC(=O)O)[C@H]21 [Pravastatin]									0	0	32.8	0	0	2.17	0	0	0	0.618	0	2.44	5.33	4.52	0	0	0	0
O=C(O)CCCCC(CCSCc1ccccc1)SCc1ccccc1 (configuration not stated) [CPI-613]									0.118	0	0	0	0	0	0	0	0	0	0	0	0	0	0	0	0	0
